Laboratory results from patent publication US20240247080A1, “GLP1/GIP/NPY2 RECEPTOR TRIPLE AGONISTS” (Boehringer Ingelheim International GmbH, priority 2022, published 2024).
Read-outs that look alike come from different tables or passages of the source. Blank lines part the entries; values can stand above or below the compound they belong to.

Assays:
Assay type in all cases: cell-based
hGLP1R = molecular target: T1, hGLP1R (Homo sapiens, UniProt P43220); assay: hGLP1R CreLuc reporter gene assay in 0.5% and 100% plasma
T1 construct: expressed in transfected cells; host or cells: HEK-293 cells carrying a CRE-luciferase reporter gene
T1 sequence (P43220 24-463): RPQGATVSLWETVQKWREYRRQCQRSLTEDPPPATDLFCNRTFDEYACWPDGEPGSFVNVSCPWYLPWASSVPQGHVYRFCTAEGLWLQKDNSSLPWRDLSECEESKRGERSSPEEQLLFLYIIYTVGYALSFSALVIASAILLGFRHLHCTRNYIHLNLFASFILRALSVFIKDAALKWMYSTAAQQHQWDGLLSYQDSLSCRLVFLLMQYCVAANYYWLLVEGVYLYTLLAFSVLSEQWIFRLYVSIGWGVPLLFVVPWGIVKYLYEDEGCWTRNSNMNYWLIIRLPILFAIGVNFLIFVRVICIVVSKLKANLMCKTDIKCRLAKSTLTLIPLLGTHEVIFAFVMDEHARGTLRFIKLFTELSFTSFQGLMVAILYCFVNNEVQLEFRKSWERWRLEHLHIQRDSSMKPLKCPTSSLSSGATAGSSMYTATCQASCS
Method in brief: (§1)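 Agonist EC50s came from 8-concentration curves over four decades, fitted by non-linear variable-slope regression of CRE-driven luciferase luminescence. Cells were exposed 4 h at 37 °C, in buffer with 0.5% human plasma or in 100% plasma; GIPR was expressed in CHO cells, GLP-1R and NPY2R in HEK cells.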

hNPY2R = molecular target: T2, hNPY2R (Homo sapiens, UniProt P49146); assay: hNPY2R CreLuc reporter gene assay in 0.5% and 100% plasma
T2 construct: expressed in transfected cells; host or cells: HEK-293 cells carrying a CRE-luciferase reporter gene
T2 sequence (P49146 1-381): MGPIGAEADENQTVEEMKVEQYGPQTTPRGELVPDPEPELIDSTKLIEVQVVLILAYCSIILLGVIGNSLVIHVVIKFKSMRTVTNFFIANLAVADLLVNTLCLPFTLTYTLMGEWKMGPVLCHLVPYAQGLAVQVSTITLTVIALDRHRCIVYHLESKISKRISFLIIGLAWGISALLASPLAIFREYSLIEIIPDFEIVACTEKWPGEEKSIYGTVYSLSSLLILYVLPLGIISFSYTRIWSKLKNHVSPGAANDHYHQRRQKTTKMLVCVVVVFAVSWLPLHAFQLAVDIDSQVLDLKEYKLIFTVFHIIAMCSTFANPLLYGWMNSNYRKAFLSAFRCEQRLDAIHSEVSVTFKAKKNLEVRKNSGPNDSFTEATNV
Method in brief: as §1

hGIPR = molecular target: T3, hGIPR (Homo sapiens, UniProt P48546); assay: hGIPR CreLuc reporter gene assay in 0.5% and 100% plasma
T3 construct: expressed in transfected cells; host or cells: CHO cells carrying a CRE-luciferase reporter gene
T3 sequence (P48546 22-466): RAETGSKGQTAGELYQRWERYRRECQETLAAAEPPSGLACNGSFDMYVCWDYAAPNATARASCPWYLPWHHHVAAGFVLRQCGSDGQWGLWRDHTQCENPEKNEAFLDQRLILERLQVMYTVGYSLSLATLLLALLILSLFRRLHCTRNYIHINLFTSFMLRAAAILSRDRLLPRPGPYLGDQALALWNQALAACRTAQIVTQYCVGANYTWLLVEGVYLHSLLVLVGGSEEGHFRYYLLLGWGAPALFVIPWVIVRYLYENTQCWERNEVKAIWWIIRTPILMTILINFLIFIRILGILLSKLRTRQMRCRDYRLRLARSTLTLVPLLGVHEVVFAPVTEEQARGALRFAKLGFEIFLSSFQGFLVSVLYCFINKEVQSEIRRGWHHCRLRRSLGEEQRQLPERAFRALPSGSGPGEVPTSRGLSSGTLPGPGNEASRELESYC
Method in brief: as §1

Structure (SMILES): CC[C@H](C)[C@H](NC(=O)[C@H](CC(C)C)NC(=O)[C@H](Cc1c[nH]c2ccccc12)NC(=O)[C@H](CCC(=O)O)NC(=O)[C@@H](NC(=O)[C@H](Cc1ccccc1)NC(=O)[C@H](C)NC(=O)C(C)(C)NC(=O)[C@H](CCC(N)=O)NC(=O)[C@H](C)NC(=O)[C@H](CCC(N)=O)NC(=O)[C@H](CCCCN)NC(=O)[C@H](CCC(=O)O)NC(=O)[C@H](CC(C)C)NC(=O)C(C)(C)NC(=O)[C@@H](NC(=O)[C@H](CO)NC(=O)[C@H](Cc1ccc(O)cc1)NC(=O)[C@H](CC(=O)O)NC(=O)[C@H](CO)NC(=O)[C@@H](NC(=O)[C@H](Cc1ccccc1)NC(=O)[C@@H](NC(=O)CNC(=O)[C@H](CC(=O)O)NC(=O)C(C)(C)NC(=O)[C@@H](N)Cc1ccc(O)cc1)[C@@H](C)O)[C@@H](C)O)[C@@H](C)CC)C(C)C)C(=O)N[C@@H](CCCCNC(=O)[C@@H](N)CCCCNC(=O)CC[C@H](NC(=O)CC[C@H](NC(=O)CC[C@H](NC(=O)CC[C@H](NC(=O)CC[C@H](NC(=O)CC[C@H](NC(=O)CCCCCCCCCCCCCCCCCCC(=O)O)C(=O)O)C(=O)O)C(=O)O)C(=O)O)C(=O)O)C(=O)O)C(=O)NCC(=O)NCC(=O)N1CCC[C@H]1C(=O)N[C@@H](CO)C(=O)N[C@@H](CO)C(=O)NCC(=O)N[C@@H](C)C(=O)N[C@@H](CO)C(=O)N[C@@H](CC(C)C)C(=O)N[C@@H](CCCNC(=N)N)C(=O)N[C@@H](Cc1c[nH]cn1)C(=O)N[C@@H](Cc1ccc(O)cc1)C(=O)N[C@@H](Cc1ccc(O)cc1)C(=O)N[C@@H](CC(N)=O)C(=O)N[C@@H](Cc1c[nH]c2ccccc12)C(=O)N[C@@H](CC(C)C)C(=O)N[C@H](C(=O)N[C@@H](CCCNC(=N)N)C(=O)N[C@@H](CCC(N)=O)C(=O)N[C@@H](CCCNC(=N)N)C(=O)N[C@@H](Cc1ccc(O)cc1)C(N)=O)[C@@H](C)O [Compound 87, Y-Aib-D-G-T-F-T-S-D-Y-S-I-Aib-L-E-K-Q-A-Q-Aib-A-F-V-E-W-L-I-K(1,3)-GGPSSGASLRHYYNWLTRQRY-NH2.C20DA-gGlu-gGlu-gGlu-gGlu-gGlu-gGlu-eLys(1,2)]
EC50 (hGLP1R; hGLP1R 0.5% hP): 0.08 nM
EC50 (hGLP1R; hGLP1R 100% hP): 2 nM
EC50 (hNPY2R; hNPY2R 0.5% hP): 20.7 nM
EC50 (hGIPR; hGIPR 0.5% hP): 0.58 nM

Structure (SMILES): CC[C@H](C)[C@H](NC(=O)[C@H](CC(C)C)NC(=O)[C@H](Cc1c[nH]c2ccccc12)NC(=O)[C@H](CCC(=O)O)NC(=O)[C@@H](NC(=O)[C@H](Cc1ccccc1)NC(=O)[C@H](C)NC(=O)C(C)(C)NC(=O)[C@H](CCC(N)=O)NC(=O)[C@H](C)NC(=O)[C@H](CCC(N)=O)NC(=O)[C@H](CCCCN)NC(=O)[C@H](CCC(=O)O)NC(=O)[C@H](CC(C)C)NC(=O)C(C)(C)NC(=O)[C@@H](NC(=O)[C@H](CO)NC(=O)[C@H](Cc1ccc(O)cc1)NC(=O)[C@H](CC(=O)O)NC(=O)[C@H](CO)NC(=O)[C@@H](NC(=O)[C@H](Cc1ccccc1)NC(=O)[C@@H](NC(=O)CNC(=O)[C@H](CCC(=O)O)NC(=O)C(C)(C)NC(=O)[C@@H](N)Cc1ccc(O)cc1)[C@@H](C)O)[C@@H](C)O)[C@@H](C)CC)C(C)C)C(=O)N[C@@H](CCCCNC(=O)[C@@H](N)CCCCNC(=O)CC[C@H](NC(=O)CC[C@H](NC(=O)CC[C@H](NC(=O)CC[C@H](NC(=O)CC[C@H](NC(=O)CC[C@H](NC(=O)CCCCCCCCCCCCCCCCCCC(=O)O)C(=O)O)C(=O)O)C(=O)O)C(=O)O)C(=O)O)C(=O)O)C(=O)NCC(=O)NCC(=O)N1CCC[C@H]1C(=O)N[C@@H](CO)C(=O)N[C@@H](CO)C(=O)NCC(=O)N[C@@H](C)C(=O)N[C@@H](CO)C(=O)N[C@H](C(=O)N[C@@H](CCCNC(=N)N)C(=O)N[C@@H](Cc1c[nH]cn1)C(=O)N[C@@H](Cc1ccc(O)cc1)C(=O)N[C@@H](Cc1ccc(O)cc1)C(=O)N[C@@H](CC(N)=O)C(=O)N[C@@H](Cc1c[nH]c2ccccc12)C(=O)N[C@@H](CC(C)C)C(=O)N[C@H](C(=O)N[C@@H](CCCNC(=N)N)C(=O)N[C@@H](CCC(N)=O)C(=O)N[C@@H](CCCNC(=N)N)C(=O)N[C@@H](Cc1ccc(O)cc1)C(N)=O)[C@@H](C)O)C(C)(C)C [Compound 103, Y-Aib-E-G-T-F-T-S-D-Y-S-I-Aib-L-E-K-Q-A-Q-Aib-A-F-V-E-W-L-I-K(1,3)-G-G-P-S-S-G-A-S-Tle-R-H-Y-Y-N-W-L-T-R-Q-R-Y-NH2.C20DA-gGlu-gGlu-gGlu-gGlu-gGlu-gGlu-eLys(1,2)]
EC50 (hGLP1R; hGLP1R 0.5% hP, CreLuc reporter gene assay, 0.5% human plasma): 0.13 nM
EC50 (hNPY2R; hNPY2R 100% hP, CreLuc reporter gene assay, 100% human plasma): 50.7 nM
EC50 (hGIPR; hGIPR 0.5% hP, CreLuc reporter gene assay, 0.5% human plasma): 0.26 nM

EC50 (hGLP1R; CreLuc reporter gene assay, 0.5% human plasma, read-out: hGLP1R 0.5% hP): 0.28 nM
EC50 (hNPY2R; CreLuc reporter gene assay, 0.5% human plasma, read-out: hNPY2R 0.5% hP): 10.8 nM
EC50 (hGIPR; CreLuc reporter gene assay, 0.5% human plasma, read-out: hGIPR 0.5% hP): 0.09 nM
EC50 (hGIPR; CreLuc reporter gene assay, 100% human plasma, read-out: hGIPR 100% hP): 0.64 nM
Structure (SMILES): CC[C@H](C)[C@H](NC(=O)[C@H](CO)NC(=O)[C@H](Cc1ccc(O)cc1)NC(=O)[C@H](CC(=O)O)NC(=O)[C@H](CO)NC(=O)[C@@H](NC(=O)[C@H](Cc1ccccc1)NC(=O)[C@@H](NC(=O)CNC(=O)[C@H](CCC(=O)O)NC(=O)C(C)(C)NC(=O)[C@@H](N)Cc1ccc(O)cc1)[C@@H](C)O)[C@@H](C)O)C(=O)NC(C)(C)C(=O)N[C@@H](CC(C)C)C(=O)N[C@@H](CCC(=O)O)C(=O)N[C@@H](CCCCN)C(=O)N[C@@H](CCC(N)=O)C(=O)N[C@@H](C)C(=O)N[C@@H](CCC(N)=O)C(=O)NC(C)(C)C(=O)N[C@@H](C)C(=O)N[C@@H](Cc1ccccc1)C(=O)N[C@H](C(=O)N[C@@H](CCC(=O)O)C(=O)N[C@@H](Cc1c[nH]c2ccccc12)C(=O)N[C@@H](CC(C)C)C(=O)N[C@@H](CC(C)C)C(=O)N[C@@H](CCCCNC(=O)[C@@H](N)CCCCNC(=O)CC[C@H](NC(=O)CC[C@H](NC(=O)CC[C@H](NC(=O)CC[C@H](NC(=O)CC[C@H](NC(=O)CC[C@H](NC(=O)CCCCCCCCCCCCCCCCCCC(=O)O)C(=O)O)C(=O)O)C(=O)O)C(=O)O)C(=O)O)C(=O)O)C(=O)NCC(=O)NCC(=O)N1CCC[C@H]1C(=O)N[C@@H](CO)C(=O)N[C@@H](CO)C(=O)NCC(=O)N[C@@H](C)C(=O)N[C@@H](CO)C(=O)N[C@@H](CC(C)C)C(=O)N[C@@H](CCCNC(=N)N)C(=O)N[C@@H](Cc1c[nH]cn1)C(=O)N[C@@H](Cc1ccc(O)cc1)C(=O)N[C@@H](Cc1ccc(O)cc1)C(=O)N[C@@H](CC(N)=O)C(=O)N[C@@H](Cc1c[nH]c2ccccc12)C(=O)N[C@@H](CC(C)C)C(=O)N[C@H](C(=O)N[C@@H](CCCNC(=N)N)C(=O)N[C@@H](CCC(N)=O)C(=O)N[C@@H](CCCNC(=N)N)C(=O)N[C@@H](Cc1ccc(O)cc1)C(N)=O)[C@@H](C)O)C(C)C [Compound 109, Y-Aib-E-G-T-F-T-S-D-Y-S-I-Aib-L-E-K-Q-A-Q-Aib-A-F-V-E-W-L-L-K(1,3)-GGPSSGASLRHYYNWLTRQRY-NH2.C20DA-gGlu-gGlu-glu-gGlu-gGlu-Glu-eLys(1,2)]
